This is an account of results in US10626087B2, “Indoline and tetrahydroquinoline sulfonyl inhibitors of dimetalloenzymes and use of the same” (priority 2015, dated 2020).

This test concerns the target NDM-1 (Klebsiella pneumoniae, UniProt C7C422). Put plainly: Inhibition of NDM-1 assay (CHROMACEF hydrolysis, absorbance at 442 nm). The test is classed as biochemical. As to conditions: for Activity w/100 uM [I]: enzyme activity with 100 uM inhibitor; for Activity w/200 uM [I]: enzyme activity with 200 uM inhibitor. As for the experimental part:
The ability of the compounds described herein to inhibit NDM-1 was determined in the following way.
A Substrate Working Solution was prepared from CRHROMACEF (6 μM) and Tween-20 (0.02% v/v) in water. An Enzyme Working Solution was prepared with NDM-1 (0.5 μg/mL), Hepes (0.1 M), pH 7 and Tween-20 (0.02% v/v). An Inhibitor Working Solution was prepared from 50 mM of the inhibitor in DMSO. The final assay conditions were 1 mL, Hepes (50 mM), pH 7, Tween-20 (0.02% v/v), CHROMACEF (3 uM), Δ35 NDM-1 (0.25 μg/mL). Extra zinc was omitted from these assays because extra ZnSO4 interferes with the metal binding groups in inhibitors.
[…] Supplemental DMSO was added to reach a final volume of 4 μL. NDM-1 Working Solution ([…]) was added to the cuvette and the inhibitor and enzyme were allowed to incubate for about 20 minutes. The reaction was initiated by added 0.5 mL Substrate Working Solution. The solution was mixed quickly, but gently to avoid bubble formation. […] to start the reaction. The reaction was mixed fast, but gently. The change in absorbance ΔΔAbs442nm/min was measured for each inhibitor from the linear slope from each inhibitor concentration.

Where [1] appears, read: *estimated or actual from a single point, target not given, values match the NDM-1 IC50 column, read-out: IC50 μM*.
[2] abbreviates: fitted IC50 with error, read-out: NDM-1 IC50.

Like-named read-outs stand apart in the source and are kept apart here.

NDM-1, sequence (C7C422 36-270 limits assumed, looked up): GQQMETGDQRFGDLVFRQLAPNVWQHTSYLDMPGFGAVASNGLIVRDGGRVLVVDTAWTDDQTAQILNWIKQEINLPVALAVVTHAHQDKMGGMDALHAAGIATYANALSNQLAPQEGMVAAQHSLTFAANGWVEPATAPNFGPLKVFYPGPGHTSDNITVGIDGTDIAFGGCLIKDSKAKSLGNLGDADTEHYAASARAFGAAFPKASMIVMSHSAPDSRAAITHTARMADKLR

Take `O=C(O)c1ccc(CN2C(=O)c3ccccc3C2=O)cc1`: the “Activity w/100 uM [I]” value was found to be 54% and the “Activity w/200 uM [I]” value amounted to 38%.

`CC(=O)N1CCc2cc(Br)c(S(=O)(=O)n3cc(C4(O)CCCCC4)nn3)cc21`: the “Activity w/100 uM [I]” value is 53% and the “Activity w/200 uM [I]” value came to 53%.

Turning to `CC(=O)N1CCc2cc(Cl)c(S(=O)(=O)/N=C(\N)CCO)cc21`, the inhibition (in general, the drop in the measured response relative to a control, in per cent) at 5 µM turned out to be 78.3%. For the same molecule, under setting [1], the half-inhibitory concentration (IC50) (in general, the concentration needed to halve the response being measured) was 1 µM. Besides, for the setting “at 50 μM”, the inhibition at 50 µM amounted to 99%.

Regarding `COC(=O)C/C(N)=N/S(=O)(=O)c1cc2c(cc1Br)CCN2C(C)=O`, the inhibition at 5 µM worked out at 77.8%. The IC50 under setting [1] was 2 µM.

`CC(=O)N1CCc2cc(Br)c(S(=O)(=O)/C=C(\N)CC(O)c3ccccc3)cc21` (stereo not drawn): the inhibition at 5 µM was 75.4% and at 25 µM the inhibition was 98.5%. Also, under setting [1], the half-inhibitory concentration (IC50) was 2.6 µM. The half-inhibitory concentration (IC50) under setting [2] was found to be 2.62 µM.

On to `CC(=O)N1CCc2cc(Cl)c(S(=O)(=O)/C=C(\N)CC(O)c3ccccc3)cc21` (stereo not drawn), for which the inhibition at 5 µM worked out at 58.4%. Besides, under setting [1], the IC50 was 3 µM. Besides, under “at 50 μM”, 50 µM produced 96.9% inhibition.

Molecule `CC(=O)N1CCc2cc(Br)c(S(=O)(=O)/N=C(\N)CCO)cc21` displayed an inhibition at 10 µM of 54%. Also, under setting [1], the IC50 was 9 µM. The same molecule registered an inhibition at 50 µM (at 50 μM) of 90.3%.

Consider `CC(=O)N1CCc2cc(Br)c(S(=O)(=O)/N=C(\N)Cc3ccccn3)cc21`, for which 10 µM produced 42.9% inhibition. Also, the IC50 under setting [1] was 14 µM. Moreover, where the note is “at 50 μM”, testing at 50 µM gave an inhibition of 97%.

Regarding `CN/C(CC(C)(C)O)=N\S(=O)(=O)c1cc2c(cc1Br)CCN2C(C)=O`, the IC50 under setting [1] was 49 µM. Also, for the setting “at 50 μM”, the inhibition at 50 µM came out at 54.4%.

`CC(=O)N1CCc2cc(Br)c(S(=O)(=O)/N=C(\N)CC3(O)CCCC3)cc21` registered an inhibition at 200 µM of 64.6%. For the same molecule, the IC50 under setting [1] was 55 µM. Moreover, where the note is “at 50 μM”, the inhibition at 50 µM is 42%.

In the case of `CC(=O)N1CCc2cc(Br)c(S(=O)(=O)/N=C(\N)CC3(O)CCCCC3)cc21`, the 50% inhibitory concentration (IC50) under setting [1] is 60 µM. In addition, where the note is “at 50 μM”, the inhibition at 50 µM amounted to 35%.

`CC(=O)N1CCc2cc(Cl)c(S(=O)(=O)/N=C(\N)CC(C)(C)O)cc21` displayed an inhibition at 5 µM of 19.9%. In addition, the IC50 under setting [1] is 80 µM. Where the note is “at 50 μM”, this molecule had an inhibition at 50 µM of 32.7%.

`CC(=O)N1CCc2cc(Br)c(S(=O)(=O)NC(=O)CC(C)(C)O)cc21`: the inhibition at 10 µM was 62.7%. Besides, the IC50 under setting [1] is 8.7 µM. This molecule also gave an inhibition at 50 µM (at 50 μM) of 93%. Moreover, under setting [2], the IC50 is 8.74 µM.

`CC(=O)N1CCc2cc(Cl)c(S(=O)(=O)NC(=O)CC(O)c3ccccc3)cc21` (stereo not drawn) showed an inhibition at 5 µM of 15.5%. Also, under setting [1], the half-maximal inhibitory concentration (IC50) was 100 µM. At 50 µM the inhibition (at 50 μM) was 31.9%.

As to `CC(=O)N1CCc2cc(Br)c(S(=O)(=O)NC(=O)CC(O)c3ccccc3)cc21` (stereo not drawn), at 5 µM the inhibition was 8.1%. Under setting [1], the IC50 is 100 µM. For the setting “at 50 μM”, this molecule yielded an inhibition at 50 µM of 28.8%.

`CC(=O)NS(=O)(=O)c1ccc2c(c1)N(C(C)=O)CC2` yielded an inhibition at 200 µM of 34%. The IC50 under setting [1] is 300 µM. The inhibition at 50 µM (at 50 μM) amounted to 10%.

Consider `CC(=O)N1CCc2cc(F)c(S(=O)(=O)NC(=O)CC(O)c3ccccc3)cc21` (stereo not drawn), for which, for the setting “at 50 μM”, the “NDM-1 % Inhibition” value came to 13.7% and at 50 µM the inhibition was 12.8%.

`CC(=O)NS(=O)(=O)c1cc2c(cc1Br)CCN2C(C)=O` came in with an inhibition at 500 µM (at 500 μM) of 18%.

As for `CC(=O)N1CCc2cc(Br)c(S(=O)(=O)n3cc(C(C)O)nn3)cc21` (stereo not drawn), the inhibition at 5 µM is 73.8% and 25 µM produced 95.1% inhibition. The IC50 under setting [1] was 2.9 µM. Besides, the IC50 under setting [2] was determined as 2.91 µM.

Take `CC(=O)N1CCc2cc(Br)c(S(=O)(=O)n3cc(C(C)(C)O)nn3)cc21`: 100 µM produced 47% inhibition and the inhibition at 200 µM is 47%. Under setting [1], the half-inhibitory concentration (IC50) was 100 µM. Also, the 50% inhibitory concentration (IC50) under setting [2] came out at 100 µM.

The molecule `CC(=O)N1CCc2cc(Br)c(S(=O)(=O)n3cc(-c4ccccc4)nn3)cc21` had an inhibition at 100 µM of 25%.

Consider `CC(=O)N1CCc2cc(Br)c(S(=O)(=O)/N=C(\N)Cc3ccccc3)cc21` [MM-86], for which the “Activity w/100 uM [I]” value is listed as 63% and the “Activity w/200 uM [I]” value came out at 46%.

Regarding `CO/C(CC(C)(C)O)=N\S(=O)(=O)c1cc2c(cc1Br)CCN2C(C)=O` [MM-94], the “Activity w/100 uM [I]” value turned out to be 96% and the “Activity w/200 uM [I]” value came to 35%.

Regarding `CC(=O)N1CCc2cc(Br)c(S(=O)(=O)/N=C(\N)CC(C)(C)O)cc21` [drawing 95], the “Activity w/100 uM [I]” value turned out to be 26% and the “Activity w/200 uM [I]” value was found to be 6.4%.

Consider `CC(=O)N1CCc2cc(Br)c(S(=O)(=O)/N=C(\N)CC(C)(C)O)cc21` [drawing 104], for which the inhibitory constant (Ki) – broadly, the dissociation constant of the complex between target and ligand, obtained from inhibition or displacement – was found to be 6 µM; the inhibition at 100 µM was determined as 74%; the inhibition at 200 µM turned out to be 93.6%. The IC50 under setting [1] was 22 µM. The IC50 under setting [2] turned out to be 22 µM.

With `CC(=O)N1CCc2cc(Br)c(S(=O)(=O)/N=C(\N)Cc3ccccc3)cc21` [drawing 109], 100 µM produced 55.5% inhibition and the inhibition at 200 µM turned out to be 73.8%. Also, the IC50 under setting [1] is 110 µM. In addition, under setting [2], the concentration for half-maximal inhibition (IC50) was 110 µM.
